Results: patent US10428387B2, “Treating chronic myelogenous leukemia (CML)” (priority 2014, dated 2019)
Where a name gives a salt, the structure may show the parent alone.

How the values were obtained:
[1] = system: phosphorylated ERK1/2 in CML progenitor and stem cells; assay: Intracellular phosphorylated-ERK1/2 analysis by FACS; type: cell-based, mouse; details: 5 μM IM or 10 nM trametinib, 3 hours
Description: For intracellular phosphorylated-ERK1/2 analysis, bone marrow cells isolated from leukemic mice were treated with 5 μM IM or 10 nM trametinib for 3 hours, fixed in 4% paraformaldehyde (Electron Microscopy Sciences) for 10 min at 37° C., washed twice with wash buffer (0.05% BSA in 1×PBS), spun down, and resuspended in 100 μl wash buffer. Ice-cold methanol (900 μl) was added to the cells while gently vortexing to reach a final 90% for permeabilization. Samples were incubated on ice for 30 min, washed twice, and resuspended in 100 μl wash buffer. IgG control antibody (Cell signaling) was added (at 1:100 dilution) for 10 min at room temperature for blocking, followed by addition of 2 μl conjugated IgG control (Pacific Blue-conjugated IgG^XP Rabbit mAb, Cell Signaling) or phospho-ERK antibody (Pacific Blue-conjugated P-p44/42(T202/Y204)^XP Rabbit mAb, Cell Signaling). Samples were gently mixed and incubated at room temperature for 1 hour. Thirty minutes after the start of the incubation, a cocktail of primary antibodies for cell surface markers (described above) was added, incubated for a further 30 min, washed once with PBS, and incubated with the secondary antibody for 20 min on ice. Samples were then washed once with wash buffer prior to FACS analysis.

K562R cells = details: K562R over-express the Src family kinase LYN; cited from earlier work
IMSG KD K562 cells = details: representative IMSG KD K562 cell lines expressing PRKCH shRNA
[2] = system: RAF/MEK/ERK signaling (phosphorylated ERK1/2); assay: Immunoblot analysis of RAF/MEK/ERK signaling in K562 cell lines; type: cell-based, human
Description: Cells were harvested and lysed with RIPA buffer (10×, 200 mM HEPES pH 6.8, 1400 mM NaCl, 25 mM MgCl2, 25 mM CaCl2, 10% NP40, and 5% sodium deoxycholate) plus phosphatase (Sigma) and protease inhibitors (Roche). […] The PKCη antibody (Santa Cruz Technology; C-15) was diluted in 5% skim milk at 1:150. The β-actin antibody (Sigma; AC-74) diluted in 5% BSA at 1:5000. Blots were developed with Pico/Femato super signal (Sigma) and visualized using autoradiography or a Bio-Rad ChemiDoc MP Imaging System.

[3] = system: mice with CML-like disease (Prkch KD); assay: Prkch knockdown mice with CML-like disease; type: in vivo, mouse; details: IM from day 14
Description: Mice with CML-like disease were generated as previously described (22). Briefly, wild-type male C57BL/6 mice 6-8 weeks of age (Jackson Laboratory) were tail-vein injected with 5-fluorouracil (200 mg/kg; Sigma) for 4 days to enrich for slow-cycling hematopoietic stem cells. At day 5, bone marrow cells were harvested and pre-incubated overnight in the presence of IL-3, IL-6 and SCF (all from PeproTech) to increase infection efficiency. At days 6 and 7, bone marrow cells were infected with a BCR-ABL retrovirus by co-sedimentation method at 3,000 rpm for 90 min at room temperature. Four hours after the second round of retroviral infection, 0.5×10^6 bone marrow cells were injected into the tail vein of syngeneic recipient mice that had been lethally irradiated (twice at 550 R). Mice were randomly allocated to each group after bone marrow transplantation.

Compound: Cc1ccc(NC(=O)c2ccc(CN3CCN(C)CC3)cc2)cc1Nc1nccc(-c2cccnc2)n1 [IM, imatinib mesylate]
- phosphorylated ERK1/2 in CML progenitor cells [1]: reduced levels of phosphorylated ERK1/2
- sensitivity of K562R cells (K562R cells): resistant
- IM resistance after knockdown of PRKCH (IMSG KD K562 cells): abrogated the IM resistance
- phosphorylated MEK and ERK1/2 after IM treatment ([2]; K562/PRKCH cells): maintained high levels
- phosphorylation of ERK1/2 following IM treatment ([2]; all IMSG KD K562 cell lines): sustained levels
- phosphorylated-ERK1/2 levels after IM treatment ([2]; control K562 cells): substantial decrease
- survival of IM-treated mice after knockdown of Prkch [3]: markedly increased survival
